Laboratory results taken from patent EP0277910A1, “1-Methyl-15-alpha-(1,2-dialkanoyloxyalkyl)androsta-1,4-diene-3-17-diones, process for their preparation and pharmaceutical compositions containing them” (SCHERING AKTIENGESELLSCHAFT, priority 1987, dated 1988).

Molecular target: T1, Aromatase (Rattus norvegicus, UniProt P22443)
T1 construct: Infantile weibliche Ratten reagieren auf PMSG (Pregnant Mare's Serum Gonadotropin)-Behandlung mit einheitlich erhöhter Steroidsynthese; from tissue; host or cells: living infantile female rats pretreated with PMSG
T1 sequence (P22443 1-508): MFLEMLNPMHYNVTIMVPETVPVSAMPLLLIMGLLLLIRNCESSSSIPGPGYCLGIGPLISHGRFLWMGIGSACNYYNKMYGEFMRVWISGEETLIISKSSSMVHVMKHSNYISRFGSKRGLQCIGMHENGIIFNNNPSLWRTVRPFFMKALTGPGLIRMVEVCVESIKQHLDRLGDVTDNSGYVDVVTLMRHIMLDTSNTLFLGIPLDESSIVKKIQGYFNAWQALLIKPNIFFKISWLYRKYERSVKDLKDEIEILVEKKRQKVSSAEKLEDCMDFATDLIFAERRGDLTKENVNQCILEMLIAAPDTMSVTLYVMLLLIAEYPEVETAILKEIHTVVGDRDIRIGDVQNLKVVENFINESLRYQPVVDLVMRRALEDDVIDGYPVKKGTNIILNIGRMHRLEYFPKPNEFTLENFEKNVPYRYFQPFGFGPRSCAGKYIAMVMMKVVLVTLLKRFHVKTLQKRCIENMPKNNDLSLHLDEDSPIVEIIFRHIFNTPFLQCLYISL
Assay: PMSG test: effect on serum oestradiol concentration in PMSG-pretreated infantile female rats
Type: in vivo, Ratte
Details: for Östradiol-Konzentration: peripheral serum, PMSG-pretreated rat, 24 h after last PMSG, mean ± SD; for Serum-östradiolkonzentration: in comparison with A and B
Protocol: Infantile weibliche Ratten reagieren auf PMSG (Pregnant Mare's Serum Gonadotropin)-Behandlung mit einheitlich erhöhter Steroidsynthese. Die Aromataseaktivität kann durch die Beeinflussung der PMSG-stimulierten Östrogenbildung gemessen werden.
Im sogenannten PMSG-Test werden 21 tage alte weibliche Ratten alle 2 Tage insgesamt 7 mal mit je 100 I.U. PMSG subkutan vorbehandelt. 1 Stunde vor und 8 Stunden nach der letzten PMSG-Applikation(d₁₂) erhalten die Tiere die Testsubstanz in 0,1 ml Benzylbenzoat/Rizinusöl (1+9) durch subkutane Injektion. Die Kontrolltiere erhalten nur das Vehikel. 24 Stunden nach der letzten PMSG-Applikation werden die Tiere getötet. Im serum wird Östradiol radioimmunologisch geprüft. Für jede Gruppe von Tieren wird der Mittelwert der Östradiolkonzentration in nMol/l mit der Standardabweichung errechnet. Die Signifikanzen der Unterschiede zur Kontrollgruppe werden durch die Varianzanalyse geprüft. Zur Ermittlung der relativen Wirkungsstärke der zu testenden Substanz im Vergleich zu der Standardsubstanz wird die Regressions- und Kovarianzanalyse durchgeführt. Ferner wird die prozentuale Hemmung gegen die PMSG-Kontrolle berechnet.

Compound | Östradiol-Konzentration (Dosis 0,1 mg/Tier 2 x s.c.) | Östradiol-Konzentration (Dosis 0,3 mg/Tier 2 x s.c.) | Östradiol-Konzentration (Dosis 1,0 mg/Tier 2 x s.c.) | Serum-östradiolkonzentration
C[C@]12CCC(=O)C(O)=C1CC[C@@H]1[C@@H]2CC[C@]2(C)C(=O)CC[C@@H]12 [A, 4-Hydroxy-4-androsten-3,17-dion, reference compound] | 3,98±1,12 nMol/l | 3,84±0,84 nMol/l | 1,94±0,62 nMol/l | –
CC(=O)OCC[C@H]1CC(=O)[C@@]2(C)CC[C@H]3[C@@H](CCC4=CC(=O)C=C(C)[C@@]43C)[C@H]12 [B, 15α-(Acetoxyethyl)-1-methyl-androsta-1,4-dien-3,17-dion, reference compound] | 2,11±0,39 nMol/l | 0,62±0,13 nMol/l | 0,54±0,07 nMol/l | –
CC(=O)O[C@H]([C@H]1CC(=O)[C@@]2(C)CC[C@H]3[C@@H](CCC4=CC(=O)C=C(C)[C@@]43C)[C@H]12)[C@H](C)OC(C)=O [C, 15α-(1R,2S-Diacetoxypropyl)-1-methyl-androsta-1,4-dien-3,17-dion] | 1,30±0,37 nMol/l | 0,68±0,32 nMol/l | 0,24±0,10 nMol/l | stärker gesenkt
CC[C@H](OC(C)=O)[C@H](OC(C)=O)[C@H]1CC(=O)[C@@]2(C)CC[C@H]3[C@@H](CCC4=CC(=O)C=C(C)[C@@]43C)[C@H]12 [D, 15α-(1R,2S-Diacetoxybutyl)-1-methyl-androsta-1,4-dien-3,17-dion] | 0,54±0,11 nMol/l | 0,88±0,15 nMol/l | 0,41±0,09 nMol/l | stärker gesenkt
